Results on two compounds are retold here after ChEMBL document CHEMBL5331145, “Discovery of a Novel Bifunctional Steroid Analog, YXG-158, as an Androgen Receptor Degrader and CYP17A1 Inhibitor for the Treatment of Enzalutamide-Resistant Prostate Cancer” (J Med Chem, 2023).

Structures are written as SMILES. Active and inactive are the calls of the source.

One data set concerns LNCaP. The data set is described as follows: Antiproliferative activity against human LNCaP cells incubated for 6 days by CellTiter-Glo assay. It counts as functional, cell-based.
Data set [1] deals with Voltage-gated inwardly rectifying potassium channel KCNH2 (Homo sapiens, UniProt Q12809). The data set is described as follows: Inhibition of human ERG by patch clamp assay. It is filed as toxicity. (In general: The patch-clamp technique gives a direct electrical read-out from membranes.)
In a further data set the target is T1, Androgen receptor (Homo sapiens, UniProt P10275).
T1 sequence (P10275 whole entry): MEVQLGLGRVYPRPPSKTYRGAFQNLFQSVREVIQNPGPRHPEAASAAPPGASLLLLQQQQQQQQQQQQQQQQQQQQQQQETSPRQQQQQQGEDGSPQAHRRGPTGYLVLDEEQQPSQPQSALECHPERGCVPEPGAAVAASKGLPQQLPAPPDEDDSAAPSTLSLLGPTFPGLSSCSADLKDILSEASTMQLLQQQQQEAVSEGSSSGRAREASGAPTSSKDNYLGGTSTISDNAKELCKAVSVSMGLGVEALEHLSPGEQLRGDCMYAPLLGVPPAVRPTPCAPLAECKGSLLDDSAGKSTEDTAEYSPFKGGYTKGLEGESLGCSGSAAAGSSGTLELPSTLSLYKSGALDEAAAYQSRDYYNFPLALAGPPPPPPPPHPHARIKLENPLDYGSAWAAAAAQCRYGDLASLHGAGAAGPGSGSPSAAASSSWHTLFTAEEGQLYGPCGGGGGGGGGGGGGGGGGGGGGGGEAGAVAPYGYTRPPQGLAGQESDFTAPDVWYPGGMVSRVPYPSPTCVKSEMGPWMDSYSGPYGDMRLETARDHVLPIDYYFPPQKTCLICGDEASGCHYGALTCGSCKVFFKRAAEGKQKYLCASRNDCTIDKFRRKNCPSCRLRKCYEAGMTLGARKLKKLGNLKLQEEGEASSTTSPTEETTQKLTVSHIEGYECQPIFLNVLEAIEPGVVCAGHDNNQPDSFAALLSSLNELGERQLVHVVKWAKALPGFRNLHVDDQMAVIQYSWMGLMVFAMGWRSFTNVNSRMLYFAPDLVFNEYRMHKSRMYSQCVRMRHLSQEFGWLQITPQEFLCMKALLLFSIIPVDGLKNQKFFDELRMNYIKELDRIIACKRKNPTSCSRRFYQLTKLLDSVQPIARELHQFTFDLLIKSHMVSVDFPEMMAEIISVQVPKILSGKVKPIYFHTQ
Briefly: Induction of androgen receptor degradation in human LNCaP cells incubated for 24 hrs by ELISA. It is filed as cell-based.

The target of data set [2] is T2, Androgen receptor (Homo sapiens) (UniProt P10275).
T2 sequence (whole entry): T1 sequence (P10275 whole entry)
Briefly: Potency index, ratio of galeterone DC50 to test compound DC50 for induction of androgen receptor degradation in human LNCaP cells. It counts as cell-based.

The target in data set [3] is T3, Steroid 17-alpha-hydroxylase/17,20 lyase (Homo sapiens, UniProt P05093).
T3 sequence (P05093 whole entry): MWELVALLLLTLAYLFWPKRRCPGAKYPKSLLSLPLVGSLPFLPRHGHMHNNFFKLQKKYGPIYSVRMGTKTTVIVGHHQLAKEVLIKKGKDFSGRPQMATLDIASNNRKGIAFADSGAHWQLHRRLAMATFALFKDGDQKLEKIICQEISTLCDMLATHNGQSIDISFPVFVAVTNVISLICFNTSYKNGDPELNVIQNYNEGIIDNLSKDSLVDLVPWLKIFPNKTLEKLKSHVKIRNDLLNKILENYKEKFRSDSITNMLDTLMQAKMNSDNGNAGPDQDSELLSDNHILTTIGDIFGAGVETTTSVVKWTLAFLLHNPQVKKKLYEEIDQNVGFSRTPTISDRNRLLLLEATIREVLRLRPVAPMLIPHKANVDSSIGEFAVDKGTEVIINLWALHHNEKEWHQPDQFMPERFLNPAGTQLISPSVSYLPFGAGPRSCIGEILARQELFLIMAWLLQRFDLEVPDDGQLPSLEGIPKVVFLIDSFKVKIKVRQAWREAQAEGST
Briefly: Inhibition of recombinant human CYP17A1 using progesterone as substrate incubated for 5 mins in presence of NADPH by LC-MS/MS analysis. It is filed as ADME.

Data set [4] concerns Androgen receptor (Homo sapiens), P10275 [F877L]. The data set is described as follows: Antagonist activity at androgen receptor F876L mutant expressed in HEK293 cells assessed as reduction in DHT-induced transcriptional activation of androgen receptor incubated for 24 hrs by Steady-Glo assay relative to control. The conditions noted are these: filed as antagonist. The arrangement: scale not given: the % may be the effect or the level left. It counts as cell-based.

A short description of data set [5]: Half life in Sprague-Dawley rat at 10 mg/kg, po measured upto 24 hrs by LC-MS/MS analysis. It is filed as ADME, organism-based. Particulars: in vivo.
The nature of data set [6]: Tmax in Sprague-Dawley rat at 10 mg/kg, po measured upto 24 hrs by LC-MS/MS analysis. It counts as ADME, organism-based. Particulars: in vivo.
Data set [7] can be described thus: Cmax in Sprague-Dawley rat at 10 mg/kg, po measured upto 24 hrs by LC-MS/MS analysis. It counts as ADME, organism-based. The arrangement: dose 10 mg/kg, time < 24 hrs, route po. Particulars: in vivo.
A short description of data set [8]: AUC(0 to t) in Sprague-Dawley rat at 10 mg/kg, po measured upto 24 hrs by LC-MS/MS analysis. It counts as ADME, organism-based. The conditions noted are these: in vivo.
The nature of data set [9]: Effect on androgen sensitive organs in testosterone propionate stimulated castrated male Sprague-Dawley rat assessed as seminal vesicles weight loss at 20 mg/kg, po administered once daily for 10 days and measured 24 hrs post last dose. It counts as functional. Particulars: time 11 day.
The nature of data set [10]: Effect on androgen sensitive organs in testosterone propionate stimulated castrated male Sprague-Dawley rat assessed as ventral prostate weight loss at 20 mg/kg, po administered once daily for 10 days and measured 24 hrs post last dose. It is filed as functional. The conditions noted are these: time 11 day.
Data set [11] is described as follows: Antitumor activity against human LNCaP/AR cells xenografted in SCID male mouse assessed as tumor growth inhibition at 10 mg/kg, po administered once daily for 28 days and measured every 3 days. It is filed as functional. Particulars: time 28 day. (In xenograft studies the graft and the host belong to different species.)
Data set [12] is described as follows: Toxicity in SCID male mouse xenografted with human LNCaP/AR cells assessed as tolerability at 10 mg/kg, po administered once daily for 28 days and measured every 3 days. It is filed as organism-based. Particulars: in vivo, 672 h, time 28 day.
The nature of data set [13]: Toxicity in SCID male mouse xenografted with human LNCaP/AR cells assessed as animal weight loss at 10 mg/kg, po administered once daily for 28 days and measured every 3 days. It counts as organism-based. Particulars: in vivo, 672 h, time 28 day.
In another data set the test system is Mus musculus. The data set is described as follows: In vivo induction of androgen receptor in human LNCaP/AR cells xenografted in SCID mouse assessed as reduction in PSA level at 10 mg/kg, po administered once daily for 28 days by ELISA. It is filed as functional, organism-based. Particulars: time 28.0 day.
Data set [14] concerns the target Androgen receptor (Homo sapiens) (UniProt P10275). The data set is described as follows: In vivo induction of androgen receptor in human LNCaP/AR cells xenografted in SCID mouse assessed as reduction in AR protein level at 10 mg/kg, po administered once daily for 28 days by ELISA. The conditions noted are these: time 28.0 day.
Data set [15] deals with GABA-A receptor; anion channel. Briefly: Antagonist activity at GABA-A (unknown origin). It is filed as toxicity, Homo sapiens.

Voltage-gated inwardly rectifying potassium channel KCNH2, sequence (Q12809 whole entry): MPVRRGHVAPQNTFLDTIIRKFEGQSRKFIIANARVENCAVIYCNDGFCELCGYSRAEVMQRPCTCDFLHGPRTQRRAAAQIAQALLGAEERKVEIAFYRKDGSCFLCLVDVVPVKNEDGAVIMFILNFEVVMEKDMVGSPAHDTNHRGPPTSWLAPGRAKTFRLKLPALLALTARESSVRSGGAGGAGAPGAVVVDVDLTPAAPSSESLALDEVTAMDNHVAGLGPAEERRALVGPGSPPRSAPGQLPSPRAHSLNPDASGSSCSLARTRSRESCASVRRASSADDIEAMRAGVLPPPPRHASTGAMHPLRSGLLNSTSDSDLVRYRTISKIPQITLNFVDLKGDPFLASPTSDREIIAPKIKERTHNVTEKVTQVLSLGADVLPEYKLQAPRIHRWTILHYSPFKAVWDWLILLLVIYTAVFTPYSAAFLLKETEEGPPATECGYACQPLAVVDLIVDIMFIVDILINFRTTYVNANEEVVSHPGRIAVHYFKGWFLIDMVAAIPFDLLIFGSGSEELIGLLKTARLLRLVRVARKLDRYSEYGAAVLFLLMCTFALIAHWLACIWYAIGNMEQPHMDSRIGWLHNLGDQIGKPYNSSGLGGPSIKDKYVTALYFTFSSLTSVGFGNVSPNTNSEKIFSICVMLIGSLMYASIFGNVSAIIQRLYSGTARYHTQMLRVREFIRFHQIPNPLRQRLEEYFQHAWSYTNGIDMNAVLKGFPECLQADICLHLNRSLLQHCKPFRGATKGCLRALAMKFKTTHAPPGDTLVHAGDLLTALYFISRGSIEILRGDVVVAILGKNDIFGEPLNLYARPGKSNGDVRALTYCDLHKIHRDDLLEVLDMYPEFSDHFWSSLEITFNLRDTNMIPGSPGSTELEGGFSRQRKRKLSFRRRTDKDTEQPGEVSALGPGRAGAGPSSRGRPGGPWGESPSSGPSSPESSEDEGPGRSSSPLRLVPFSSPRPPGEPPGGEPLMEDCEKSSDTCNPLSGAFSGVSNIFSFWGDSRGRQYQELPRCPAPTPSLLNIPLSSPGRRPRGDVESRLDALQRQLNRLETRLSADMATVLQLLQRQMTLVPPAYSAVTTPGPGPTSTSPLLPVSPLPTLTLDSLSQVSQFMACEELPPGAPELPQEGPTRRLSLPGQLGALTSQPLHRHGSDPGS
Androgen receptor (Homo sapiens), P10275 [F877L], sequence (P10275 whole entry F877L): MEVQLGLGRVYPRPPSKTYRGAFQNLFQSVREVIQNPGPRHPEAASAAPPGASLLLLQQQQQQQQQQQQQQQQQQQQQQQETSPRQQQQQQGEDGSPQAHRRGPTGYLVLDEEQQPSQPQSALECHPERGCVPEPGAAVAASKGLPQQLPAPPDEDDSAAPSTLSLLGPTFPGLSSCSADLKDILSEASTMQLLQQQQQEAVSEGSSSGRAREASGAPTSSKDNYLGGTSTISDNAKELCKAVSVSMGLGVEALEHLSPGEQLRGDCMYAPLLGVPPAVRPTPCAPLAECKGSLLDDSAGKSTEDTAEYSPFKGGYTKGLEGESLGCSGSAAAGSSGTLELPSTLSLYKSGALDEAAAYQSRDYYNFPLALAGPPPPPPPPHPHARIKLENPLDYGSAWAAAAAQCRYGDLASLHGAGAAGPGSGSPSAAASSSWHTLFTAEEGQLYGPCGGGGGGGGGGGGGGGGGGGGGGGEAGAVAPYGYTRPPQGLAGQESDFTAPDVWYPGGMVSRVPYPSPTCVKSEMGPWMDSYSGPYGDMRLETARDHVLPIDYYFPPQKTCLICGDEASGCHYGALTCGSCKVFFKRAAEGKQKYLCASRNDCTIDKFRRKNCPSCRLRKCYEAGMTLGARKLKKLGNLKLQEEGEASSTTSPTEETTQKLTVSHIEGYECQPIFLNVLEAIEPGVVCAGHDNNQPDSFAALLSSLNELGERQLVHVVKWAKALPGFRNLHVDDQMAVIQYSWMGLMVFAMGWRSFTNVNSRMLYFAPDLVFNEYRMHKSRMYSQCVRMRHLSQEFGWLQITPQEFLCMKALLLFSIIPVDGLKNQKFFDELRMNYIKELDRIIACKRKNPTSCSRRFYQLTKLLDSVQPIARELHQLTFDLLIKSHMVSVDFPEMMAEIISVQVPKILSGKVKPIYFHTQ

As a reminder, the IC50 is the concentration at which inhibition is half-maximal. As a reminder, the EC50 is the concentration giving half of the maximal effect. As usually defined, the half-life is the time needed for the level to fall by half in the phase considered. A word on the Tmax: it is the time from dosing to the highest level. One may read the Cmax as the highest concentration seen after dosing. In the case of `Cc1cn(C2=CCC3C4CC=C5C[C@@H](NC(=O)c6ccc(F)cc6F)CC[C@]5(C)C4CC[C@]23C)cn1` (stereo partly specified), the IC50 with LNCaP is 0.327 µM; in data set [1] it was above 40 µM; in [3], 0.127 µM. At Androgen receptor, this compound registered an EC50 of 1.68 µM. Also, the Ratio in data set [2] worked out at 8.6. The Activity is 41.6% in data set [4]; -65% in data set [9]; -65% in data set [10]; “Non-Toxic” in [12]; “Non-Toxic” in data set [13]. Moreover, in data set [5], the half-life is 6.02 h. Moreover, the Tmax in data set [6] stood at 6 h. Also, the highest level in [7] (Cmax) was 1520 ng/mL. For the same compound, in [8], the AUCt was found to be 22542 h/ng/mL. The inhibition in vivo at 10 mg/kg in data set [11] (Homo sapiens, LNCaP/AR, 672 h, read-out: TGI) was found to be 50%. Moreover, in the data set on Mus musculus, the outcome was Active. Also, the result in [14] was inactive.
Broadly, the TGI is how far tumour growth fell short of that in controls. Take `CNC(=O)c1ccc(N2C(=S)N(c3ccc(C#N)c(C(F)(F)F)c3)C(=O)C2(C)C)cc1F` [ENZALUTAMIDE]: the Activity in [9] and in data set [10] was -67% throughout. In addition, the TGI in data set [11] is listed as 64%. Also, the IC50 in data set [15] amounted to 4.8 µM.
